Test results published in patent US20180311342A1, “IMMUNOSTIMULATING AGENT” (AJINOMOTO CO., INC., priority 2017, published 2018).
Structures can show the parent of a compound that is named as a salt.

Columns and labels:
[1] = system: anti-OVA-specific IgG2a subclass antibody; experiment: Adjuvant activity test: anti-OVA-specific IgG2a subclass antibody in serum of OVA-immunized mice (ELISA); assay type: in vivo, BALB/c mice; conditions: after secondary immunization, serum 2 weeks later; OVA 5 μg + compound 0.256 μmol in 5% αCD-added saline (Addavax mixed with saline at 1:1), dorsal-subcutaneous; compared to OVA single administration group
[2] = system: anti-OVA-specific IgG1 subclass antibody; experiment: Adjuvant activity test: anti-OVA-specific IgG1 subclass antibody in serum of OVA-immunized mice (ELISA); assay type: in vivo, BALB/c mice; conditions: after secondary immunization, serum 2 weeks later; OVA 5 μg + compound 0.256 μmol in 5% αCD-added saline (Addavax mixed with saline at 1:1), dorsal-subcutaneous; compared to OVA single administration group

Structure (SMILES) | anti-OVA-specific IgG2a subclass antibody production [1] | anti-OVA-specific IgG1 subclass antibody production [2]
CCCCCCCCCCCCCCCCOC(=O)N[C@@H](CC(C)C)C(=O)NCCCCCCCC [SZ203, hexadecyl N-[(1S)-3-methyl-1-(octylcarbamoyl)butyl]carbamate] | tended to increase | tended to increase
CCCCCCCCCCCCCCCCCC(=O)NCC(C)(C)C(=O)NCCCCCCCCCCCC [SZ204, N-[3-(dodecylamino)-2,2-dimethyl-3-oxo-propyl]octadecanamide] | tended to increase | significant enhancement
CCCCCCCCCCCCCCCCCC(=O)N[C@@H](CCCCNC(=N)N)C(=O)NCCCCCCCCCCCC.Cl [SZ205, N-[(1S)-1-(dodecylcarbamoyl)-5-guanidino-pentyl]octadecanamide hydrochloride] | significant enhancement | significant enhancement
CCCCCCCCCCCCNC(=O)[C@H](CCCNC(=N)N)N(CCCCCCC)CCCCCCC [SZ207, (2S)-2-(diheptylamino)-N-dodecyl-5-guanidino-pentanamide dihydrochloride] | significant enhancement | significant enhancement
CCCCCCCCCCCCCCCCCCCCCC(=O)NCCc1ccncc1.Cl [SZ209, N-[2-(4-pyridyl)ethyl]docosanamide hydrochloride] | tended to increase | tended to increase
CCCCCCCCCCCCCCCCNC(=O)N[C@@H](CCCNC(=N)N)C(=O)NCCCCCCCC.Cl [SZ210, (2S)-5-guanidino-2-(hexadecylcarbamoylamino)-N-octyl-pentanamide hydrochloride] | significant enhancement | significant enhancement
CCCCCCCCCCCCCCCCCCNC(=O)N[C@@H](CCCNC(=N)N)C(=O)NCCCCCCCCCCCC.Cl [SZ211, (2S)—N-dodecyl-5-guanidino-2-(octadecylcarbamoylamino)pentanamide hydrochloride] | significant enhancement | significant enhancement
CCCCCCCCCCCCNC(=O)N[C@@H](CCCNC(=N)N)C(=O)NCCCCCCCCCCCC.Cl [SZ212, (2S)—N-dodecyl-2-(dodecylcarbamoylamino)-5-guanidino-pentanamide hydrochloride] | significant enhancement | significant enhancement
CCCCCCCCCCCCCCCCNC(=O)N[C@@H](CCCCN)C(=O)NCCCCCCCC.Cl [SZ213, (2S)-6-amino-2-(hexadecylcarbamoylamino)-N-octyl-hexanamide hydrochloride] | significant enhancement | significant enhancement
CCCCCCCCCCCCCCCCNC(=O)N[C@@H](CCCCN)C(=O)NCCCCCCCCCCCC.Cl [SZ214, (2S)-6-amino-N-dodecyl-2-(hexadecylcarbamoylamino)hexanamide hydrochloride] | significant enhancement | significant enhancement
CCCCCCCCCCCCCCCCOC(=O)N[C@@H](CCCNC(=N)N)C(=O)NCCCCCCCC.Cl [SZ215, hexadecyl N-[(1S)-4-guanidino-1-(octylcarbamoyl)butyl]carbamate hydrochloride] | significant enhancement | a tendency toward increase
